Measurements published in article PMC11792066, “Development of benzofuran-derived sulfamates as dual aromatase-steroid sulfatase inhibitors (DASIs): design, synthesis and biological evaluation” (RSC Medicinal Chemistry, 2025).
Where “and” joins values, the source holds several entries; their conditions need not be identical. Equal entries are not always repeated. Where two headings read alike, the source gives them in different places.

Tests used:
[1] = target: T1, steroid sulfatase (STS) (Homo sapiens, UniProt P08842); experiment: Steroid sulfatase activity assay, cell-free JEG-3 lysate, [3H]oestrone sulfate substrate; type: biochemical; conditions: for IC50: 20 μM E1S, 37 °C, 1 h, triplicate
T1 construct: lysates from JEG-3 cells, known to have high endogenous STS activity; host or cells: JEG-3 cell lysate (supernatant after centrifugation)
T1 sequence (P08842 22-583): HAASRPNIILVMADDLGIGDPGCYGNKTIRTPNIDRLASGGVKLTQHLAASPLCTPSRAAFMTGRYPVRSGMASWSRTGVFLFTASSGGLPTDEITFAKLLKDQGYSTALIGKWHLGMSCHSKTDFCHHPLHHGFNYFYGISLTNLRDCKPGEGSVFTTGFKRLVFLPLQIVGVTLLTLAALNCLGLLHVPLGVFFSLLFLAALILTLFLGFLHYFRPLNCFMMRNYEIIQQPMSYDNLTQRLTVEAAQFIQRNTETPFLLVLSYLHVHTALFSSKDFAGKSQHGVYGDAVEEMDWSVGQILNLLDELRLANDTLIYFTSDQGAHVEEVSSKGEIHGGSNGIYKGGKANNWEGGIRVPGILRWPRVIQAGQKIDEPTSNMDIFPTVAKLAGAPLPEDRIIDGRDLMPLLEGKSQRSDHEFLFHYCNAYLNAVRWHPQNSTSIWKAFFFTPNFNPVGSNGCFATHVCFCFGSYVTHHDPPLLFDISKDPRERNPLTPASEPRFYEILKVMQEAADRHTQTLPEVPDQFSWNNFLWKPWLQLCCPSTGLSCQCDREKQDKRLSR
Procedure: (§1) JEG-3 cells (ATCC) were cultured in Eagle's minimal essential medium (EMEM) supplemented with 10% fetal calf serum (FCS). The cells were maintained at 37 °C in a humidified incubator with 5% CO2. Then, the cells were cultured to approximately 80% confluence before any treatments were applied.
STS activity was measured using an in vitro, cell-free assay. Briefly, lysates from JEG-3 cells, known to have high endogenous STS activity, were prepared by lysing the cells with a buffer (50 mM Tris-HCl, pH 7.4, and 1 mM EDTA). After centrifugation, the supernatant was collected and protein concentrations were determined using a BCA assay kit.
For the steroid sulfatase assay, 125 μg of JEG-3 lysate was incubated with the substrate [^3H]oestrone sulfate (E1S, 4 × 10^5 dpm) diluted to a final concentration of 20 μM using non-radioactive E1S. The mixture was incubated in the presence of different concentrations of inhibitors (ranging from 10^−11 M to 10^−5 M) at 37 °C for 1 hour. After incubation, the reaction was stopped by placing the tubes on ice, and the estrone product formed was separated from the substrate by extraction with toluene. [^14C]oestrone was added to the organic phase as an internal standard to monitor recovery and procedural losses.
The organic phase was subjected to liquid scintillation counting to measure both ^3H and ^14C. The amount of E1S hydrolysed was calculated from the ^3H counts, corrected for recovery using the ^14C standard, and converted into molar concentrations of hydrolysed product. The inhibitory activity of test compounds was expressed as the IC50 value, representing the concentration required to inhibit 50% of the STS activity.

[2] = target: T2, aromatase (CYP19A1) (Homo sapiens, UniProt P11511); experiment: Aromatase activity assay, modified tritiated water assay in JEG-3 cells; type: cell-based; conditions: 1 h incubation, triplicate
T2 construct: host or cells: JEG-3 cells
T2 sequence (P11511 1-503): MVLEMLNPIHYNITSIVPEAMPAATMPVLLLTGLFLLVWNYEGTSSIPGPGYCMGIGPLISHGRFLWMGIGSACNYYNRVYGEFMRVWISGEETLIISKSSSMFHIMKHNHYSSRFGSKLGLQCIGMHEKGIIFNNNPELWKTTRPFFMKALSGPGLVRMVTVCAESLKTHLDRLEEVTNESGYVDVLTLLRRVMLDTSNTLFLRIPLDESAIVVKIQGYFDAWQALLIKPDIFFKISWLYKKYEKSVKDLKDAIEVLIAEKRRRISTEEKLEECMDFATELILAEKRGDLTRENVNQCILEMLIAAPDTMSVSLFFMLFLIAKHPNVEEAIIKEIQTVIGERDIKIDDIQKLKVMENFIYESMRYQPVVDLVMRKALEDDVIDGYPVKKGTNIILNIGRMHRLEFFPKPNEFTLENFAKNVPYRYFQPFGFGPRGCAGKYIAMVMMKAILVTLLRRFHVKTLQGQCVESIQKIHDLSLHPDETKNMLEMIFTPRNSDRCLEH
Procedure: Seven compounds including the two carbamate side products were investigated for their aromatase inhibitory activity at 10 nM using the previously reported modified tritiated water assay.[20]
as §1
The aromatase activity was measured using a modified tritiated water assay. The JEG-3 cells were cultured in six-well plates in EMEM until reaching 80% confluence. The substrate androst-4-ene-3,17-dione [1β-^3H] was added to each well in a serum-free medium. In the presence and absence of dual inhibitors (at concentrations ranging from 0.001 to 10 nM), the cells were incubated at 37 °C for 1 hour. The reaction was stopped by placing the plates on ice for 5 minutes. The medium (500 μL) was obtained, vortexed with 2% dextran-treated charcoal in PBS, and centrifuged at 4000 rpm. [^3H]H2O in the supernatant was quantified using scintillation counting. The aromatase activity was normalized to protein concentration, determined by the Pierce BCA assay kit (Thermo Fisher Scientific), and expressed as pmol of product per mg of protein per hour.

[3] = JEG-3 cells, read-out: Arom IC50

N#Cc1ccc(C(c2cc3ccc(OC(N)=O)cc3o2)n2cncn2)cc1 (stereo not drawn) [10b, 2-((4-Cyanophenyl)(1H-1,2,4-triazol-1-yl)methyl)benzofuran-6-yl carbamate] was tested, and the “STS inhibitory activity (in words)” value [1] was “neither the triazole sulfamates (6, 7, 8a, 9, 10a) nor the triazole carbamates (8b, 10b) displayed STS inhibitory activity” and the IC50 ([2]; Arom IC50, JEG-3 cells) was 0.65 nM.

Compound COc1ccc(C(=O)c2oc3cc(OS(N)(=O)=O)ccc3c2C)cc1 [19e, 2-(4-Methoxybenzoyl)-3-methylbenzofuran-6-yl sulfamate] has an IC50 [1] of 164 nM and an IC50 [2, 3] of 35 nM.

In the case of NS(=O)(=O)Oc1ccc2c3c(c(=O)oc2c1)CCCCC3 [STX64, Irosustat, reference compound], the IC50 [2, 3] is reported as greater than 1000 nM.

Work on NS(=O)(=O)Oc1ccc2cc(C(=O)c3ccc(Cl)cc3Cl)oc2c1 [18d, 2-(2,4-Dichlorobenzoyl)benzofuran-6-yl sulfamate] yielded an IC50 [1] of 310 nM and an IC50 [2, 3] greater than 1000 nM.

Work on NS(=O)(=O)Oc1ccc2cc(C(=O)c3ccc(Br)cc3)oc2c1 [18c, 2-(4-Bromobenzoyl)benzofuran-6-yl sulfamate] yielded an IC50 [1] of 510 nM and an IC50 [2, 3] greater than 1000 nM.

Cc1c(C(=O)c2ccc(F)cc2)oc2cc(OS(N)(=O)=O)ccc12 [19a, 2-(4-Fluorobenzoyl)-3-methylbenzofuran-6-yl sulfamate] showed an IC50 [1] of 654 nM and an IC50 [2, 3] of 50 nM.

For NS(=O)(=O)Oc1ccc2cc(C(=O)c3ccc(Cl)cc3)oc2c1 [18b, 2-(4-Chlorobenzoyl)benzofuran-6-yl sulfamate], the IC50 [1] was 410 nM and the IC50 [2, 3] was greater than 1000 nM.

In the case of NS(=O)(=O)Oc1ccc2cc(C(=O)c3ccc(F)cc3)oc2c1 [18a, 2-(4-Fluorobenzoyl)benzofuran-6-yl sulfamate], the IC50 [1] is reported as 740 nM and the IC50 [2, 3] is reported as greater than 1000 nM.

With Cc1c(C(=O)c2ccc(Cl)cc2)oc2cc(OC(N)=O)ccc12 [compound 21, 2-(4-Chlorobenzoyl)-3-methylbenzofuran-6-yl carbamate] the IC50 [1] was ≥ 1000 nM and 980 nM and the IC50 [2, 3] was no less than 1000 nM.

N#Cc1ccc(C(c2ccc(C#N)cc2)n2cncn2)cc1 [Letrozole, reference compound] was tested, and the IC50 [1] was greater than 1000 nM.

With NC(=O)Oc1ccc(C(c2cc3cc(Cl)ccc3o2)n2cncn2)cc1 (stereo not drawn) [8b] the “STS inhibitory activity (in words)” value [1] was “neither the triazole sulfamates (6, 7, 8a, 9, 10a) nor the triazole carbamates (8b, 10b) displayed STS inhibitory activity” and the IC50 ([2]; Arom IC50, JEG-3 cells) was 4.1 nM.

Work on Cc1c(C(=O)c2ccc(Br)cc2)oc2cc(OS(N)(=O)=O)ccc12 [19c, 2-(4-Bromobenzoyl)-3-methylbenzofuran-6-yl sulfamate] yielded an IC50 [1] of 830 nM and an IC50 [2, 3] of 22 nM.

In the case of N#Cc1ccc(C(=O)c2cc3ccc(OS(N)(=O)=O)cc3o2)cc1 [18f, 2-(4-Cyanobenzoyl)benzofuran-6-yl sulfamate], the IC50 [1] is reported as 280 nM and the IC50 [2, 3] is reported as greater than 1000 nM.

In the case of NS(=O)(=O)Oc1ccc2cc(C(c3ccc(Cl)cc3)n3cncn3)oc2c1 (stereo not drawn) [compound 6, 2-((4-Chlorophenyl)(1H-1,2,4-triazol-1-yl)methyl)benzofuran-6-yl sulfamate], the “STS inhibitory activity (in words)” value [1] is reported as “neither the triazole sulfamates (6, 7, 8a, 9, 10a) nor the triazole carbamates (8b, 10b) displayed STS inhibitory activity” and the IC50 [2, 3] is reported as 1.4 nM.

With Cc1c(C(=O)c2ccc(Cl)cc2)oc2cc(OS(N)(=O)=O)ccc12 [19b, 2-(4-Chlorobenzoyl)-3-methylbenzofuran-6-yl sulfamate] the IC50 [1] was 48 nM and the IC50 [2, 3] was 137 nM.

With COc1ccc(C(=O)c2cc3ccc(OS(N)(=O)=O)cc3o2)cc1 [18e, 2-(4-Methoxybenzoyl)benzofuran-6-yl sulfamate] the IC50 [1] was 115 nM and the IC50 [2, 3] was greater than 1000 nM.

With NS(=O)(=O)Oc1ccc(C(c2cc3cc(Cl)ccc3o2)n2cncn2)cc1 (stereo not drawn) [8a, 4-((5-Chlorobenzofuran-2-yl)(1H-1,2,4-triazol-1-yl)methyl)phenyl sulfamate] the “STS inhibitory activity (in words)” value [1] was “neither the triazole sulfamates (6, 7, 8a, 9, 10a) nor the triazole carbamates (8b, 10b) displayed STS inhibitory activity” and the IC50 [2, 3] was greater than 10 nM.

With NS(=O)(=O)Oc1ccc2cc(C(c3ccc(F)cc3)n3cncn3)oc2c1 (stereo not drawn) [compound 9, 2-((4-Fluorophenyl)(1H-1,2,4-triazol-1-yl)methyl)benzofuran-6-yl sulfamate] the “STS inhibitory activity (in words)” value [1] was “neither the triazole sulfamates (6, 7, 8a, 9, 10a) nor the triazole carbamates (8b, 10b) displayed STS inhibitory activity” and the IC50 [2, 3] was 8.4 nM.

For Cc1c(C(=O)c2ccc(Cl)cc2Cl)oc2cc(OS(N)(=O)=O)ccc12 [19d, 2-(2,4-Dichlorobenzoyl)-3-methylbenzofuran-6-yl sulfamate], the IC50 [1] was 1500 nM and the IC50 [2, 3] was 20 nM.

NS(=O)(=O)Oc1ccc2oc(C(c3ccc(Cl)cc3)n3cncn3)cc2c1 (stereo not drawn) [compound 7, 2-((4-Chlorophenyl)(1H-1,2,4-triazol-1-yl)methyl)benzofuran-5-yl sulfamate] was tested, and the “STS inhibitory activity (in words)” value [1] was “neither the triazole sulfamates (6, 7, 8a, 9, 10a) nor the triazole carbamates (8b, 10b) displayed STS inhibitory activity” and the IC50 [2, 3] was 5.49 nM.

NC(=O)Oc1ccc2cc(C(=O)c3ccc(Cl)cc3)oc2c1 [compound 20, 2-(4-Chlorobenzoyl)benzofuran-6-yl carbamate] was tested, and the IC50 [1] was ≥ 1000 nM and 1220 nM and the IC50 [2, 3] was no less than 1000 nM.

For N#Cc1ccc(C(c2cc3ccc(OS(N)(=O)=O)cc3o2)n2cncn2)cc1 (stereo not drawn) [10a, 2-((4-Cyanophenyl)(1H-1,2,4-triazol-1-yl)methyl)benzofuran-6-yl sulfamate], the “STS inhibitory activity (in words)” value [1] was “neither the triazole sulfamates (6, 7, 8a, 9, 10a) nor the triazole carbamates (8b, 10b) displayed STS inhibitory activity” and the IC50 [2, 3] was 1.52 nM.
